From US5185320A, “O^56 -alkyl derivatives of aglycone and pseudo aglycones of teicoplanin” (Gruppo Lepetit S.p.A., priority 1989, dated 1993)

What was measured:
Assay type in all cases: cell-based
Settings in all cases: inoculum about 10^4 CFU/ml, 18-24 h at 37° C.
[1] = test system: Strep. faecalis ATCC 7080; assay: MIC, standard dilution test, Strep. faecalis ATCC 7080
Experimental: (§1) ISOSENSITEST broth (Oxoid) and TOLLD-HEWITT broth (Difco) are used for growing staphylococci and streptococci, respectively. Broth cultures are diluted so that the final inoculum is about 10^4 colony forming units/ml (CFU/ml).

[2] = test system: Pseudomonas aeruginosa ATCC 10145; assay: MIC, standard dilution test, Pseudomonas aeruginosa ATCC 10145
Experimental: as §1

[3] = test system: Haemophilus influenzae ATCC 19418; assay: MIC, standard dilution test, Haemophilus influenzae ATCC 19418
Experimental: as §1

[4] = test system: Neisseria gonorrhoeae ISM68/126; assay: MIC, standard dilution test, Neisseria gonorrhoeae ISM68/126
Experimental: as §1

[5] = test system: Staph. aureus Tour L 165; assay: MIC, standard dilution test, Staph. aureus Tour L 165
Experimental: as §1

[6] = test system: Proteus vulgaris ATCC 881; assay: MIC, standard dilution test, Proteus vulgaris ATCC 881
Experimental: as §1

[7] = test system: Strep. mitis L 796; assay: MIC, standard dilution test, Strep. mitis L 796
Experimental: as §1

[8] = test system: Staph. haemolyticus L 602; assay: MIC, standard dilution test, Staph. haemolyticus L 602
Experimental: as §1

[9] = test system: Strep. pneumoniae UC41; assay: MIC, standard dilution test, Strep. pneumoniae UC41
Experimental: as §1

[10] = test system: Escherichia coli SKF 12140; assay: MIC, standard dilution test, Escherichia coli SKF 12140
Experimental: as §1

[11] = test system: Staph. epidermidis ATCC 12228; assay: MIC, standard dilution test, Staph. epidermidis ATCC 12228
Experimental: as §1

[12] = test system: Strep. pyogenes C 203; assay: MIC, standard dilution test, Strep. pyogenes C 203
Experimental: as §1

Compound	Minimal inhibitory concentration (MIC) [1]	Minimal inhibitory concentration (MIC) [2]	Minimal inhibitory concentration (MIC) [3]	Minimal inhibitory concentration (MIC) [4]	Minimal inhibitory concentration (MIC) [5]	Minimal inhibitory concentration (MIC) [6]	Minimal inhibitory concentration (MIC) [7]	Minimal inhibitory concentration (MIC) [8]	Minimal inhibitory concentration (MIC) [9]	Minimal inhibitory concentration (MIC) [10]	Minimal inhibitory concentration (MIC) [11]	Minimal inhibitory concentration (MIC) [12]
NC1C(=O)NC2Cc3ccc(c(Cl)c3)Oc3cc4cc(c3OC3CCOC3=O)Oc3ccc(cc3Cl)C(O)C3NC(=O)C(NC(=O)C4NC(=O)C(NC2=O)c2cc(O)cc(c2)Oc2cc1ccc2O)c1ccc(O)c(c1)-c1c(O)cc(O)cc1C(C(=O)OC1CCOC1=O)NC3=O (stereo not drawn) [Compound 23, O^56-(tetrahydro-2-oxo-3-furanyl)deglucoteicoplanin (tetrahydro-2-oxo-3-furanyl) ester]	1	> 128	> 128	> 128	0.5	> 128	2	8	0.5	> 128	0.25	2
NCCNC(=O)C(CCO)OC(=O)C1NC(=O)C2NC(=O)C(NC(=O)C3NC(=O)C4NC(=O)C(Cc5ccc(c(Cl)c5)Oc5cc3cc(c5OC(CCO)C(=O)NCCN)Oc3ccc(cc3Cl)C2O)NC(=O)C(N)c2ccc(O)c(c2)Oc2cc(O)cc4c2)c2ccc(O)c(c2)-c2c(O)cc(O)cc21 (stereo not drawn) [Compound 24]	0.5	> 128	> 128	128	0.25	128	0.125	0.25	0.25	32	0.125	0.125
O-(2-(3-(4-(3-amino-propyl)amino)butyl)amino)propyl)amino)-1-hydroxy-2-oxoethyl)teicoplanin aglycone 1-(3-(4-(3-aminopropyl) amino)butyl)amino)propyl)amino)carbonyl)-3-hydroxy-propyl ester [Compound 25]	1	> 128	> 128	> 128	0.25	64	0.125	0.25	0.125	32	0.125	0.125
O^56 -(2-bromoethyl)deglucoteicoplanin phenylmethyl ester [Compound 19]	4	> 128	> 128	> 128	1	> 128	0.25	4	0.5	> 128	0.5	0.25
